Experiments:
[1] = target: mGlu5a (Homo sapiens, UniProt P41594); conditions: cited from earlier work
[2] = tested on: corneal kindled seizures; assay: Mouse corneal kindling model; type: in vivo, mice; conditions: 100 mg/kg s.c.; Racine score 0-5
Method: After the mice reached a stable kindled state, the test compound or vehicle was administered and, at the previously determined TPE, each animal was given the electrical stimulus indicated above. […] One dose of LEV and two doses of Co.

[3] = tested on: 6 Hz (44 mA) psychomotor seizures; assay: 6 Hz psychomotor seizure test, 44 mA (alone, combination with LEV, isobolographic study); type: in vivo, mice
In short: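 Mice dosed s.c. or p.o. at 0.01 mL/g, alone or with LEV at fixed dose ratios proportional to ED50 values. Focal seizures induced by corneal stimulation (6 Hz, 0.2 msec pulse, 3 sec, 44 mA); animals without stun, forelimb clonus, vibrissae twitch or Straub-tail were counted as protected. ED50 values derived, with combinations analysed isobolographically.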

[4] = tested on: 6 Hz (32 mA) psychomotor seizures; assay: 6 Hz psychomotor seizure test, 32 mA (incl. TPE determination); type: in vivo, mice; conditions: for # protected/# tested: 0.5 h
Method: Test compounds were administered using an optimal fluid volume to body fluid ratio. Test compounds were administered to mice in a volume of 0.01 mL/g of body weight (White H. S., et al., General Principles: Experimental selection, quantification, and evaluation of antiepileptic drugs, in Antiepileptic Drugs, Fourth Edition, […], and B. S. Meldrum, Editors. 1995, Raven Press, Ltd.: New York, pp. 99-110). For subcutaneous (s.c.) administration, the test compounds were administered into a loose fold of skin along the back of the animal except compound 6-b, which was administered orally (p.o). […] The animals were maintained on an adequate diet (Prolab RMH 3000) and allowed free access to food and water, except during the short time they were removed from their cage for testing. Animals newly received in the laboratory were allowed sufficient time to correct for possible food and water restriction incurred during transit before being employed in testing. All mice were housed in plastic cages in specially constructed rooms with controlled humidity, exchange of air and controlled lighting (12 hours on-12 hours off). The animals were housed, fed, and handled in a manner consistent with the recommendations in the National Council Publication, “Guide for the Care and Use of Laboratory Animals”. In the determination of an ED50 or TD50 for each test compound, the first dose administered is usually the same dose as that used in a successful TPE determination. […] Third and fourth doses were selected to produce an evenly spaced dose response line. […] TPE was determined using the 6 Hz (32 mA) assay. […] The 6 Hz seizure test is used as a model of pharmacoresistant limbic seizures. […] Focal seizures were induced in mice via corneal stimulation (6 Hz, 0.2 msec rectangular pulse, 3 sec duration; Barton et al. 2001). Mice were tested at either 32 mA or 44 mA. […] The seizures that arise from corneal stimulation in this assay are characterized by a minimal clonic phase followed by stereotyped automatistic behaviors including stun, forelimb clonus, twitching of the vibrissae, and Straub-tail. Animals not displaying these behaviors were considered protected.

[5] = Minimal motor impairment (rotarod); type: in vivo, mice; conditions: for # rotarod motor impairment/# tested: 0.5 h
Method: Acute MMI was assessed by a combination of direct observations of the animal for overt symptoms of the animal's neurological or muscular function. In mice, the rotarod procedure was used to disclose minimal muscular or neurological impairment. When a mouse is placed on a rod that rotates at a speed of 6 rpm, the animal can maintain its equilibrium for long periods of time. The animal was considered toxic if it fell off this rotating rod three times during a 1 min period.
In the determination of an ED50 or TD50 for each test compound, the first dose administered is usually the same dose as that used in a successful TPE determination.
If the initial dose employed was effective or toxic in more than 50% of animals, the next dose would be one-half that of the initial dose; if the initial dose was effective or toxic in less than 50% of animals, the following dose would be twice that of the initial dose. Third and fourth doses were selected to produce an evenly spaced dose response line. There should be a minimum of 4 points either including or lying between 0 and 100%.

[6] = target: mGlu1a (Homo sapiens, UniProt Q13255); conditions: cited from earlier work
mGlu1a, sequence (Q13255 19-1194): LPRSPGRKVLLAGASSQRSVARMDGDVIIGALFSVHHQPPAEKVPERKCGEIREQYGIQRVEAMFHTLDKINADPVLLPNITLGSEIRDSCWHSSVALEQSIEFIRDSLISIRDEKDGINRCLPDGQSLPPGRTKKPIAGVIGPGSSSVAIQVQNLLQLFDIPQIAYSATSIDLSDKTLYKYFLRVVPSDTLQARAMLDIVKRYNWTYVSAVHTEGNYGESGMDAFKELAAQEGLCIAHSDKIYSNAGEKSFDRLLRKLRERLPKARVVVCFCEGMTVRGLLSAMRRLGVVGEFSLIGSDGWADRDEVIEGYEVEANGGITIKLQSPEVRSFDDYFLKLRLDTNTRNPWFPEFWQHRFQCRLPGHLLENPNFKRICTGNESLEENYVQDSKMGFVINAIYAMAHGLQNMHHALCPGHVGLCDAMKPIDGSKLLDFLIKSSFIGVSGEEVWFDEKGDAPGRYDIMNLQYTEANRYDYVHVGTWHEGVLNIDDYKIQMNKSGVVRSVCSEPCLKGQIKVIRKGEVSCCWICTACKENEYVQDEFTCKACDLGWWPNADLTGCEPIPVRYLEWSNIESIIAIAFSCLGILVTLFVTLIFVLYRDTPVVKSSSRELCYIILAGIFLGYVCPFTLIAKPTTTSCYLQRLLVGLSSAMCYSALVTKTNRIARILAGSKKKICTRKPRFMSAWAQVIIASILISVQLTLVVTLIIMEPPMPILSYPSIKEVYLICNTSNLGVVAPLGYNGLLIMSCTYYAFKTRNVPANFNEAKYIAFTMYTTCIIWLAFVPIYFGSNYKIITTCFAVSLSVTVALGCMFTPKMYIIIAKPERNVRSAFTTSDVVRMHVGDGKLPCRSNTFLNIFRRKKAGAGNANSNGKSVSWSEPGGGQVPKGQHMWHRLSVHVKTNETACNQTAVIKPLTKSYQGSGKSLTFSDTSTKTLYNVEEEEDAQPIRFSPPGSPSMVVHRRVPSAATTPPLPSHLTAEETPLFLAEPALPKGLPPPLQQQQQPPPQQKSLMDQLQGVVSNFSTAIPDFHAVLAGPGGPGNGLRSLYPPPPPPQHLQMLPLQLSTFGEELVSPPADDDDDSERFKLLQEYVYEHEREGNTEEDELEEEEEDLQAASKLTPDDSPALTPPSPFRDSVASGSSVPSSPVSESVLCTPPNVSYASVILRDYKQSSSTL

mGlu5a, sequence (P41594 21-1180 isoform P41594-2): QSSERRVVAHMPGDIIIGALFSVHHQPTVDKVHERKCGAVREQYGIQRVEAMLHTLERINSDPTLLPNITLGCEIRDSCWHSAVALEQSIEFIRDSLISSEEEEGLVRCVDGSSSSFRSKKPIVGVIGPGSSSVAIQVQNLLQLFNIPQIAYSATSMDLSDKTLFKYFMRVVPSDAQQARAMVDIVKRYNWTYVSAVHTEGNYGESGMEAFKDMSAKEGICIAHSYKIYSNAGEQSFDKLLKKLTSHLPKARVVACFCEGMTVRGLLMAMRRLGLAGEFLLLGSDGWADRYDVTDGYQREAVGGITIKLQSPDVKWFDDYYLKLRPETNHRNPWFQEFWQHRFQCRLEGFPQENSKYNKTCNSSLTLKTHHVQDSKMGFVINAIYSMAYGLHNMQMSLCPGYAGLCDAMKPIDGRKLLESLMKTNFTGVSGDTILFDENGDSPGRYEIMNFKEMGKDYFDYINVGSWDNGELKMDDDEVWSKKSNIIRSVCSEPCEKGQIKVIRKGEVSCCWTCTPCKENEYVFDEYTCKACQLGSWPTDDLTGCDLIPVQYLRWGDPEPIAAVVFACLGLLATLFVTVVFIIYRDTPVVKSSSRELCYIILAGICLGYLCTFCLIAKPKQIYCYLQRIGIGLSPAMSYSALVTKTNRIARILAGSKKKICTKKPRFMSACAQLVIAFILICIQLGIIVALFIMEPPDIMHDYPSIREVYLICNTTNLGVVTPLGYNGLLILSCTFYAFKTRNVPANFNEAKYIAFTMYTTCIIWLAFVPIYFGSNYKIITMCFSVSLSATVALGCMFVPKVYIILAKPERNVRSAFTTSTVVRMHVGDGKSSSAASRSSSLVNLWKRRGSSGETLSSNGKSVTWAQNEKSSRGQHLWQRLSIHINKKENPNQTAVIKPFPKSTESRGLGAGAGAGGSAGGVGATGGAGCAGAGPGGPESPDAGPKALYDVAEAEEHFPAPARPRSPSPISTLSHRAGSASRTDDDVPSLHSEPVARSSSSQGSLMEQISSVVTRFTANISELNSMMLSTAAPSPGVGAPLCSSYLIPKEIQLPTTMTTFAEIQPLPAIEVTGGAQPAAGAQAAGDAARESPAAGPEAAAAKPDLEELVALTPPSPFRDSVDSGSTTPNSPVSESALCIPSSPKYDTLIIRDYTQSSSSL

N[C@@]1(C(=O)O)CS(=O)(=O)[C@H]2[C@H](C(=O)O)[C@H]21 [LY-404039, reference compound]
activity at mGlu5a [1]: no activity
Seizure score (dose) Corneal kindling [2]: 3.1
activity when administered alone ([3]; 5 mg/kg s.c.): ^bLY404039 (s.c.) 5 mg/kg tested in combination with LEV (i.p.); LY404039 5 mg/kg was not active when administered alone.
responders at 5 mg/kg ([3]; Mus musculus, sc, 0.5 h, 5 mg/kg s.c., 0.5 h, read-out: # protected/# tested): 0%
responders at 10 mg/kg ([3]; Mus musculus, sc, 0.5 h, 10 mg/kg s.c., 0.5 h, read-out: # protected/# tested (converted)): 37.5%
responders at 20 mg/kg ([3]; Mus musculus, sc, 0.5 h, 20 mg/kg s.c., 0.5 h, read-out: # protected/# tested (converted)): 87.5%
responders at 40 mg/kg ([3]; Mus musculus, sc, 0.5 h, 40 mg/kg s.c., 0.5 h, read-out: # protected/# tested (converted)): 87.5%
ED50 ([3]; Mus musculus, sc, at TPE, compound alone, read-out: ED50 (95% CI) 44 mA): 14.1 mg/kg
activity in the 6 Hz 44 mA test ([3]; result in words): activity in both 6 Hz tests was seen
pharmacodynamic interaction with LEV in the 6 Hz model ([3]; result in words): synergy was seen
# protected/# tested ([4]; 5 mg/kg s.c.): 1/16
# protected/# tested ([4]; 10 mg/kg s.c.): 5/8
# protected/# tested ([4]; 20 mg/kg s.c.): 6/8
# protected/# tested ([4]; 40 mg/kg s.c.): 8/8
ED50 ([4]; Mus musculus, sc, at TPE, read-out: ED50 (95% CI) 32 mA): 10.2 mg/kg
activity in the 6 Hz 32 mA test ([4]; result in words): activity in both 6 Hz tests was seen
ED50 (95% CI) 32 mA ([4]; s.c., at TPE): ED50 (95% CI): 10.9 mg/kg (7.8 to 15.9)
# rotarod motor impairment/# tested ([5]; 5 mg/kg s.c., 32 mA group): 1/16
# rotarod motor impairment/# tested ([5]; 5 mg/kg s.c., 44 mA group): 0/16
# rotarod motor impairment/# tested ([5]; 10 mg/kg s.c., 32 mA group): 0/8
# rotarod motor impairment/# tested ([5]; 10 mg/kg s.c., 44 mA group): 1/8
# rotarod motor impairment/# tested ([5]; 20 mg/kg s.c., 32 mA group): 1/8
# rotarod motor impairment/# tested ([5]; 20 mg/kg s.c., 44 mA group): 1/8
# rotarod motor impairment/# tested ([5]; 40 mg/kg s.c., 32 mA group): 1/8
# rotarod motor impairment/# tested ([5]; 40 mg/kg s.c., 44 mA group): 2/8
mice with impairment out of total ([5]; 40 mg/kg s.c., 32 mA and 44 mA groups combined): ^a40 mg/kg-3 out of 16 total (32 mA and 44 mA combined) with impairment.
TD50 at 0.5 h ([5]; mouse, in vivo, sc, rotarod): > 40 mg/kg
activity at mGlu1a [6]: no activity
